Experimental data as given in US8859608B2, “Spiro amino compounds suitable for the treatment of inter alia sleep disorders and drug addiction” (Rottapharm Biotech S.R.L., priority 2009, dated 2014).
Read-outs that look alike come from different tables or passages of the source.

Experiments:
[1] = biological target: T1, human OX2 receptor (Homo sapiens, UniProt O43614); assay: FLIPR measurement of intracellular calcium, antagonistic activity at OX2
T1 sequence (O43614 1-444): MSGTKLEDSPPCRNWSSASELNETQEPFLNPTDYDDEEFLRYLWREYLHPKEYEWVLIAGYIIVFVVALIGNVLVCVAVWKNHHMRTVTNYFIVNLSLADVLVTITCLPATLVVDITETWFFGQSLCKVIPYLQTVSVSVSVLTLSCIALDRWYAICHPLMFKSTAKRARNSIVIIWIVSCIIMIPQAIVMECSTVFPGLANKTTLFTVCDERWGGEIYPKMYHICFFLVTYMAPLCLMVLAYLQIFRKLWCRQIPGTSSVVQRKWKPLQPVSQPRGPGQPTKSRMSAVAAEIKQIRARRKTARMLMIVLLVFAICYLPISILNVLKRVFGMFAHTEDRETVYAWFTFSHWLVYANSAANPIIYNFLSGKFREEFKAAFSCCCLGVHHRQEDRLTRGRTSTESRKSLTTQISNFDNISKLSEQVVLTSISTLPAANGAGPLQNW
Protocol: (§2) Thus the plate was loaded with the calcium dye (Fluo-4NW/probenecid in HBSS, Hepes 20 mM, pH 7,4; Invitrogen) at 37° C. for 60 min. Afterward the temperature was equilibrated at 22° C. for 15 min and the [Ca2+]i measured directly on the plate by using a fluorescent plate reader (CeliLux Perkin Elmer).
(§3) After 5 min CHO cells were activated with orexin-A, 3 nM while HEK-293 cells were activated with orexin-B, 10 nM.
(§4) The antagonistic activity has been expressed as pKb (co-logarithm of the apparent dissociation constant calculated by using the modified Cheng Prusoff equation).

[2] = biological target: T2, human OX1 receptor (Homo sapiens, UniProt O43613); assay: FLIPR measurement of intracellular calcium, antagonistic activity at OX1; details: for Kb: pKb OX1, CHO cells with human recombinant OX1, activated with orexin-A 3 nM, 1 nM-1 μM range, modified Cheng Prusoff; for selectivity against the OX1 receptor: OX1 versus OX2, from the pKb table
T2 sequence (O43613 1-425): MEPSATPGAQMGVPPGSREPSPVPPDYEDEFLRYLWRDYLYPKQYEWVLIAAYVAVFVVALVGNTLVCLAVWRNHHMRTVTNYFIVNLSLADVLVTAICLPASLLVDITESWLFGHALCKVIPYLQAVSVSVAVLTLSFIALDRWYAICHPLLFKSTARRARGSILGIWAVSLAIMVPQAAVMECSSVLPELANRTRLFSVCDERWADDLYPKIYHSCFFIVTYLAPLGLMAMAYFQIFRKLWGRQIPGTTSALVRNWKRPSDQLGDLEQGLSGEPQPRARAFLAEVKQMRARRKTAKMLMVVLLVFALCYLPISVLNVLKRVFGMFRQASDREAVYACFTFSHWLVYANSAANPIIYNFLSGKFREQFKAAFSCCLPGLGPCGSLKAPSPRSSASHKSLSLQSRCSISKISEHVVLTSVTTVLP
Protocol: as §2, §3, §4

[3] = Pharmacokinetics in male Han Wistar rats, intravenous and oral; assay type: in vivo; details: 1 mg/kg
Protocol: (§1) The pharmacokinetics of compound 4 were studied in male Han Wistar rats. The rats were treated intravenously and orally (n=3 for each dose route) with a compound 2 solution at the dose of 1 mg/kg, formulated in Lactic acid 150 mM pH 4.5 in water, 5% DMSO, 10% TWEEN 80. The rats were fitted with a jugular cannula for serial sampling, a full profile was acquired for each rat. Another group of rats (n=3) was treated intravenously and sacrificed after 1 hour harvesting arterial blood and brain to assess brain penetration. Plasma and brain extracts were quantitatively analyzed using a specific and sensitive LC-MS/MS bioanalytical method. Inter-individual variations between the three rats in each group were limited (CV for pharmacokinetic parameters was below 30%).

[4] = Brain penetration in rats 1 hour after intravenous treatment; assay type: in vivo; details: male, Han Wistar, rat, one hour after intravenous administration, 1 mg/kg
Protocol: as §1

[5] = male, Han Wistar, plasma, rat, intravenous

SMILES	Kb [1] [µM]	Kb [2] [µM]	further results
Cc1ccc(-n2nccn2)c(C(=O)N2CC3(CC3)C[C@H]2CNc2cccc(C)n2)c1 [Compound 50, (S)-(5-methyl-2-(2H-1,2,3-triazol-2-yl)phenyl)(6-(((6-methylpyridin-2-yl)amino)methyl)-5-azaspiro[2.4]heptan-5-yl)methanone]	> 10	0.0794	
Cc1ccnc(NC[C@@H]2CC3(CCN2C(=O)c2ccccc2-c2ccccc2)CC3)n1 [Compound 39, (S)-[1,1′-biphenyl]-2-yl(5-(((4-methylpyrimidin-2-yl)amino)methyl)-6-azaspiro[2.5]octan-6-yl)methanone]	> 10	0.0126	
Cc1cc(C)nc(NC[C@@H]2CC3(CCN2C(=O)c2nc(C)sc2-c2ccccc2)CC3)n1 [Compound 22, (S)-(5-(((4,6-dimethylpyrimidin-2-yl)amino)methyl)-6-azaspiro[2.5]octan-6-yl)(2-methyl-5-phenylthiazol-4-yl)methanone]	> 10	0.02	
COC(=O)c1cc(Cl)ccc1NCC1CC2(CCN1C(=O)c1nc(C)sc1-c1ccc(F)cc1)CC2 (racemic) [Compound 15, (±)methyl 5-chloro-2-((6-(5-(4-fluorophenyl)-2-methylthiazole-4-carbonyl)-6-azaspiro[2.5]octan-5-yl)methylamino)benzoate]	> 10	0.126	
Cc1nc(C(=O)N2CCC3(CC3)C[C@H]2CNc2cccc(C(F)(F)F)n2)c(-c2ccccc2)s1 [Compound 18, (S)-(2-methyl-5-phenylthiazol-4-yl)(5-(((6-(trifluoromethyl)pyridin-2-yl)amino)methyl)-6-azaspiro[2.5]octan-6-yl)methanone]	> 10	0.0501	
Cc1nc(C(=O)N2CCC3(CC3)CC2CNc2ccc(C(F)(F)F)cn2)c(-c2ccccc2)s1 (single isomer, unassigned) [Compound 8, (2-methyl-5-phenylthiazol-4-yl)(5-((5-(trifluoromethyl)pyridin-2-ylamino)methyl)-6-azaspiro[2.5]octan-6-yl)methanone]	> 10	0.02	selectivity against the OX1 receptor [2]: same behaviour
Cc1nc(C(=O)N2CCC3(CC3)CC2CNc2ccc(Cl)cn2)c(-c2ccccc2)s1 (single isomer, unassigned) [Compound 5, (5-((5-chloropyridin-2-ylamino)methyl)-6-azaspiro[2.5]octan-6-yl)(2-methyl-5-phenylthiazol-4-yl)methanone]	> 1	0.0126	
Cc1cccc(NCC2CC3(CCN2C(=O)c2nc(C)sc2-c2ccccc2)CC3)n1 (single isomer, unassigned) [Compound 2, (2-methyl-5-phenylthiazol-4-yl)(5-((6-methylpyridin-2-ylamino)methyl)-6-azaspiro[2.5]octan-6-yl)methanone]	> 10	0.00631	clearance as share of rat liver blood flow ([3]; intravenous): 40%; AUC [3, 5]: ~0.74 µg·h/mL; clearance [3, 5]: ~5.33 mL/min; Vd ([3]; male, Han Wistar, plasma, rat, intravenous, read-out: average volume of distribution (Vss)): 0.33 L; bioavailability ([3]; male, Han Wistar, plasma, rat, oral solution, read-out: absolute oral bioavailability): 50%; AUC ([3]; male, Han Wistar, plasma, rat, oral): ~0.36 µg·h/mL; oral AUC as share of AUC after intravenous administration ([3]; rat): about 50%; time of maximum concentration ([3]; rat, oral): ≤ 30 min; selectivity against the OX1 receptor [2]: highly selective; concentration at 1 h ([4]; arterial plasma, read-out: average arterial plasmatic level): 0.126 µg/mL; Kp at 1 h ([4]; brain/plasma, read-out: Brain/plasma concentrations ratio): 0.66; concentration at 1 h ([4]; brain, read-out: average total brain level): 83 ng/g
Cc1cc(C)nc(NC[C@@H]2CC3(CCN2C(=O)c2ccccc2-c2ccccc2)CC3)n1 [Compound 35, (S)-[1,1′-biphenyl]-2-yl(5-(((4,6-dimethylpyrimidin-2-yl)amino)methyl)-6-azaspiro[2.5]octan-6-yl)methanone]	0.0794	0.00501	
Cc1cccc(NCC2CC3(CCN2C(=O)c2nc(C)sc2-c2ccccc2)CC3)n1 (racemic) [Compound 1, (±) (2-methyl-5-phenylthiazol-4-yl)(5-((6-methylpyridin-2-ylamino)methyl)-6-azaspiro[2.5]octan-6-yl)methanone]	> 10		selectivity against the OX1 receptor [2]: same behaviour
O=C(c1ccccc1OCC1CC1)N1CCC2(CC2)CC1CNc1ccc(Cl)cn1 (racemic) [Compound 9, (±) (5-((5-chloropyridin-2-ylamino)methyl)-6-azaspiro[2.5]octan-6-yl)(2-(cyclopropylmethoxy)phenyl)methanone]	> 10	0.1	
Cc1nc(C(=O)N2CCC3(CC3)C[C@H]2CNc2cccc(Cl)n2)c(-c2ccccc2)s1 [Compound 17, (S)-(5-(((6-chloropyridin-2-yl)amino)methyl)-6-azaspiro[2.5]octan-6-yl)(2-methyl-5-phenylthiazol-4-yl)methanone]	> 10	0.0316	
Cc1cc(C)nc(NC[C@@H]2CC3(CCN2C(=O)c2cc(Cl)ccc2Cl)CC3)n1 [Compound 37, (S)-(2,5-dichlorophenyl)(5-(((4,6-dimethylpyrimidin-2-yl)amino)methyl)-6-azaspiro[2.5]octan-6-yl)methanone]	> 10		
Cc1ccc(-c2ncccn2)c(C(=O)N2CC3(CC3)C[C@H]2CNc2ccc(Cl)cn2)c1 [Compound 51, (S)-(6-(((5-chloropyridin-2-yl)amino)methyl)-5-azaspiro[2.4]heptan-5-yl)(5-methyl-2-(pyrimidin-2-yl)phenyl)methanone]	> 10	0.00631	
Cc1nc(C(=O)N2CCC3(CC3)CC2CNc2ccc(C(F)(F)F)cn2)c(-c2ccccc2)s1 (racemic) [Compound 7, (±) (2-methyl-5-phenylthiazol-4-yl)(5-((5-(trifluoromethyl)pyridin-2-ylamino)methyl)-6-azaspiro[2.5]octan-6-yl)methanone]	> 10	0.0251	selectivity against the OX1 receptor [2]: same behaviour
O=C(c1ccccc1OCC1CC1)N1CCCCC1CNc1ccc(Cl)cn1 (stereo not shown) [comparison 4, reference compound]	0.158	0.00316	
Cc1ccc(-n2nccn2)c(C(=O)N2CC3(CC3)C[C@H]2CNc2ccc(Cl)cn2)c1 [Compound 49, (S)-(6-(((5-chloropyridin-2-yl)amino)methyl)-5-azaspiro[2.4]heptan-5-yl)(5-methyl-2-(2H-1,2,3-triazol-2-yl)phenyl)methanone]	> 10	0.00794	
Cc1cccc(NCC2CCCCN2C(=O)c2ccccc2-c2ccccc2)n1 (stereo not shown) [comparison 1, reference compound]	0.0316	0.126	
Cc1cccc(NCC2CCCCN2C(=O)c2nc(C)sc2-c2ccc(F)cc2)n1 (stereo not shown) [comparison 5, reference compound]	0.00398	0.00316	
Cc1nc(C(=O)N2CCCCC2CNc2ccc(Cl)cn2)c(-c2ccccc2)s1 (stereo not shown) [comparison 2, reference compound]	0.0251	0.01	
Cc1cccc(NCC2CCCCN2C(=O)c2nc(C)sc2-c2ccccc2)n1 (stereo not shown) [comparison 3, reference compound]	0.00316	0.001	
